According to patent US6455588B1, “Compositions including modafinil for treatment of eating disorders and for appetite stimulation” (Cephalon, Inc., priority 1999, dated 2002):

Assays:
orexin neurons = assay: Double immunostaining for orexin and Fos, cell counts in the perifornical region of modafinil-treated mice; type: in vivo; conditions: wild-type mice, 150 mg/kg i.p., 2 hours
Experimental: To determine that modafinil might act through orexin neurons, wild-type mice were injected at noon with modafinil (150 mg/kg i.p.), or vehicle, and sacrificed 2 hours later. Brains were removed, double immunostained for orexin and Fos (an indicator of neuronal activity), and cells were counted in the periforllical region. The number of orexin-immunoreactive neurons was the same in both groups (44-47 cells/section), but the modafinil-treated group had over three times as many Fos-immunoreactive neuronal nuclei (38 in the modafinil-treated mice vs. 11 in the vehicle controls; p=0.01). Within the population of orexin-immunoreactive neurons, modafinil induced a 9-fold increase in the number of Fos-immunoreactive cells (64% double labeled neurons in the modafinil group vs. 7% in the vehicle group, p=0.01) (FIG. 1). Thus, in the lateral hypothalamus, modafinil treatment is associated with activation of orexin neurons, and is thus useful as a treatment for eating disorders or for increasing appetite.

[1] = 400 mg/day, clinical trials; cited from earlier work
[2] = test system: neurons of the TMN and VLPO of the hypothalamus; assay: Neuronal activity in hypothalamic nuclei (TMN, VLPO) after modafinil administration; type: in vivo, rats
Excerpt: Activation of this histaminergic pathway by modafinil results in cortical activation and wakefulness. Thus, it appears that the physiologic basis for the wake-promoting actions of modafinil involves disinhibition of histaminergic neurons of the TMN by inhibitory actions on the VLPO. This represents the first pharmacologic agent known to produce wakefulness by activation of the TMN.

NC(=O)C[S+]([O-])C(c1ccccc1)c1ccccc1 (stereo not drawn) [modafinil, 2-(benzhydrylsulfinyl) acetamide]
Fos-immunoreactive neuronal nuclei (orexin neurons; perifornical region, vehicle 11, p=0.01): 38 | double labeled (orexin/Fos) neurons within orexin-immunoreactive neurons (orexin neurons; vehicle 7%, p=0.01): 64% | increase in the number of Fos-immunoreactive cells within orexin-immunoreactive neurons (orexin neurons; versus vehicle): 9 fold | tolerability [1]: well tolerated | activity of the neurons in the ventrolateropreoptic area (VLPO) of the hypothalamus ([2]; rats): reduced the activity | activity in the TMN of the posterior hypothalamus ([2]; wakefulness-promoting doses): stimulation of activity
